Results taken from US11174267B2, “Spiroindolinones and therapeutic uses thereof” (The Regents of the University of California, priority 2015, dated 2021).
Read-outs that look alike come from different tables or passages of the source.

Experiments:
[1] = test system: susceptible strain (HLY4123) of C. albicans; assay: Dose-response with fluconazole (0.25 μg/mL) against susceptible strain; assay type: cell-based, Candida albicans
Description: (§1) C. albicans was grown in SC medium overnight and then diluted to an effective OD600 of 0.0625. Serial ten-fold dilutions of the test compounds (0.15-1500 μM) were prepared in DMSO in 1.5 mL Eppendorf tubes. […] The plates were incubated in a rotary shaker/incubator at 30° C. for 16 h. The contents of each well was resuspended with a micropipettor and a 20 μL aliquot was added to a polystyrene cuvette and diluted with 680 μL of deionized water. The suspension was triturated again immediately before measuring the absorbance at 600 nm (OD600) for cell densities. EC50 values were determined by fitting to the Hill equation using the Excel-based tool ED50PLUS v1.0 (Mario H. Vargas) or using Mathematica. Similar procedures were used for Candida glabrata and Cryptococcus neoformans.

[2] = test system: Resistant Candida albicans (clinical isolate-45); assay: EC50 in combination with fluconazole, resistant C. albicans; assay type: cell-based; details: C. albicans clinical isolate-45; [fluconazole] = 64 μg/mL; read-out: EC50 Resistant Candida albicans
Candida glabrata = assay: EC50 in combination with fluconazole, Candida glabrata; assay type: cell-based; details: [fluconazole] = 128 μg/mL
From the text: (§2) Strains and growth condition. The wild-type Candida albicans strains used were SC5314 and CaSS1. Cdr1 heterozygous were from Merck Sharp & Dohme Corp. Double Barcoded (DBC) library of heterozygous Candida albicans mutants (version 2013A). Cdr1 deficient mutant was obtained by counterselection of the GRACE library strain on 5-Fluoroorotic Acid (5-FOA) containing plate. Clinical isolated resistant C. albicans were from Dr. David Rogers. Cryptococcus neoformans var. grubii H99 (ATCC 208821) and Candida glabrata BG2, a fluconazole-resistant clinical isolate, were used. Yeast strains were cultured at 30° C. in synthetic complete (SC) medium containing 2% glucose.
as §1
(§3) Because fungal drug-efflux ABC transporters are conserved, Cdr1 inhibitors that target the conserved regions of the pumps are expected to inhibit the drug efflux pumps in all fungi including C. albicans. […] Therefore, those spiroindolinones are candidates for combination antifungal therapy with azoles against invasive infections of not only C. albicans, but also other pathogenic fungi.

Cryptococcus neoformans = assay: EC50 in combination with fluconazole, Cryptococcus neoformans; assay type: cell-based; details: [fluconazole] = 4 μg/mL
From the text: as §2, §1, §3

NIH 3T3 cells = assay: Cytotoxicity, LDH assay; assay type: cell-based; details: concentrations up to 1.5 mM
Description: The cytotoxicity of spiroindoline Compounds 1, 8 and 25 were tested against NIH 3T3 cells at concentrations up to 1.5 mM (FIG. 13) using an LDH assay.

[3] = test system: resistant clinical isolates of C. albicans; assay: Screen of resistant clinical isolates, single dose, broth microdilution (growth OD600); assay type: cell-based, Candida albicans; details: fluconazole 64 μg/mL alone, 16 h in SC at 30° C.
From the text: (Flowers, S. A., et al. Eukaryotic Cell 2012, 11, 1289-1299.) The strains grow at dramatically different rates.

[4] = test system: C. albicans strain HLY4123 and clinical isolates 26 and 45; assay: Checkerboard assay (MIC90, FIC index); assay type: cell-based, Candida albicans; details: Candida albicans
Description: Checkerboard assays were carried out using four 24-well plates. The results on each plate were normalized by duplication of one row and one column with a row and column on another plate. C. albicans was grown in SC medium overnight and then diluted to an effective OD600 of 0.0625. Serial ten-fold dilutions of the test compounds (150 mM) were prepared in DMSO in 1.5 mL Eppendorf tubes. […] Concentrations of compound in rows 1-11 varied from 300 μM to 0.0003 nM; the last row 12 contained no compound. […] The plates were incubated in a rotary shaker/incubator at 30° C. for 16 h. The contents of each well was resuspended with a micropipettor and a 20 μL aliquot was added to a polystyrene cuvette and diluted with 680 μL of deionized water. The suspension was triturated again immediately before measuring the absorbance at 600 nm. The MIC90 values were determined as the lowest concentrations of the drugs (alone or in combination) that inhibited fungal growth by 90% compared with that of the drug-free wells.
In all of the strains tested, the FIC index was below 0.5, fitting the classical definition of synergy.

[5] = biological target: C. albicans sterol α-demethylase (a.k.a. Erg11 or CYP51) (Candida albicans, UniProt P10613); assay: Literature: inhibition of sterol α-demethylase by fluconazole; assay type: biochemical; details: ten times the Ki, >90% inhibition expected
C. albicans sterol α-demethylase (a.k.a. Erg11 or CYP51), sequence (P10613 whole entry): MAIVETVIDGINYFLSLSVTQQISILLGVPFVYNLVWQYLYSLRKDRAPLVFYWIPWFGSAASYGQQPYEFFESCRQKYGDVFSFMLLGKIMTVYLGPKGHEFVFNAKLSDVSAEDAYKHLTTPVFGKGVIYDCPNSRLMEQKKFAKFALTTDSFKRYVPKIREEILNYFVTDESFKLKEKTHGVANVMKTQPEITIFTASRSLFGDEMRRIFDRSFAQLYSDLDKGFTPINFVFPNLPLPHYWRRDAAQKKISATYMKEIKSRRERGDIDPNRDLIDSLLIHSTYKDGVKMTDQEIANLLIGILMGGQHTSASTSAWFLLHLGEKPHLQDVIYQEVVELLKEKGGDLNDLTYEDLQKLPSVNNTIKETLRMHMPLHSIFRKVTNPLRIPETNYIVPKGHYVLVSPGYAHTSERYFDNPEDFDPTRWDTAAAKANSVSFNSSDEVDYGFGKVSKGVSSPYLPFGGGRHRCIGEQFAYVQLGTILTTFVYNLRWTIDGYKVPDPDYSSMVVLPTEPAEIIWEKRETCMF

[6] = test system: resistant clinical isolates of C. albicans; design: unit not given beside the values; details: cited from earlier work
[7] = in the presence of fluconazole; cited from earlier work
[8] = Candida albicans, with fluconazole 0.25 μg/mL, strain HLY4123
[9] = with fluconazole 0.25 μg/mL, strain HLY4123

Question: Which results are given for `Cc1c(Cl)ccc2c1NC(=O)[C@]21N[C@H](Cc2ccccc2)[C@@H]2C(=O)N(c3ccccc3)C(=O)[C@@H]21` (racemic) [Compound 8]?
Answer: EC50 [1, 8]: 1 nM; EC50 [2]: 490 nM; EC50 (Candida glabrata): 1720 nM; EC50 (Cryptococcus neoformans): 11300 nM; cytotoxicity (NIH 3T3 cells): weak to negligible cytotoxicity

Question: What does the source list for `Cc1c(Cl)ccc2c1NC(=O)[C@@]21[C@H]2C(=O)N(c3ccccc3)C(=O)[C@H]2[C@H]2CN(C(=O)OC(C)(C)C)CCN21` (racemic) [Compound 9, (±)-tert-Butyl (3R,3a′R,3b'S,9a'S)-6-chloro-7-methyl-1′,2,3′-trioxo-2′-phenyl-2′,3′,3a′,3b′,4′,6′,7′,9a′-octahydrospiro[indoline-3,9′-pyrrolo[3′,4′:3,4]pyrrolo[1,2-a]pyrazine]-5′(1′H)-carboxylate]?
Answer: EC50 [1, 8]: 5.6 nM; times more potent than compound 33 ([1]; ratio of EC50s, diastereomers): over 35; EC50 [1, 9]: 6 to 8 nM

Question: With `Cc1c(Cl)ccc2c1NC(=O)[C@@]21[C@H]2C(=O)N(c3ccccc3)C(=O)[C@H]2[C@H]2CNCCN21` [Compound 20] as the compound, how does the “activity (in words)” value [1, 9] read?
Answer: low activity

Question: Which results are given for `OC(Cn1cncn1)(Cn1cncn1)c1ccc(F)cc1F` [fluconazole, reference compound]?
Answer: Growth (OD600) +Fluc ([3]; clinical isolate 15): 5.58; Growth (OD600) +Fluc ([3]; clinical isolate 16): 0.64; Growth (OD600) +Fluc ([3]; clinical isolate 17): 3.96; Growth (OD600) +Fluc ([3]; clinical isolate 21): 6.46; Growth (OD600) +Fluc ([3]; clinical isolate 22): 3.27; Growth (OD600) +Fluc ([3]; clinical isolate 23): 6.77; Growth (OD600) +Fluc ([3]; clinical isolate 25): 2.90; Growth (OD600) +Fluc ([3]; clinical isolate 26): 6.44; Growth (OD600) +Fluc ([3]; clinical isolate 30): 9.40; Growth (OD600) +Fluc ([3]; clinical isolate 33): 7.38; Growth (OD600) +Fluc ([3]; clinical isolate 36): 5.08; Growth (OD600) +Fluc ([3]; clinical isolate 41): 9.47; Growth (OD600) +Fluc ([3]; clinical isolate 45): 9.17; Growth (OD600) +Fluc ([3]; clinical isolate 49): 11.31; MIC90 ([4]; clinical isolate 26, fluconazole alone, read-out: MICFlc (MIC90)): 836 µM; MIC90 ([4]; clinical isolate 26, with Compound 25, read-out: MICFlc (+cpd) (MIC90)): 105 µM; MIC90 ([4]; clinical isolate 45, fluconazole alone, read-out: MICFlc (MIC90)): 836 µM; MIC90 ([4]; clinical isolate 45, with Compound 25, read-out: MICFlc (+cpd) (MIC90)): 105 µM; MIC90 ([4]; read-out: MIC90 for fluconazole, susceptible strain, Compound 25 present at 300 nM): 0.125 µM; MIC90 ([4]; strain HLY4123, fluconazole alone, read-out: MICFlc (MIC90)): 0.5 µM; MIC90 ([4]; strain HLY4123, with Compound 25, read-out: MICFlc (+cpd) (MIC90)): 0.125 µM; theoretical limit for fluconazole potency [5]: around 0.3 μM; MICFlc ([6]; clinical isolate 15): 16; MICFlc ([6]; clinical isolate 16): 16; MICFlc ([6]; clinical isolate 17): 32; MICFlc ([6]; clinical isolate 21): 32; MICFlc ([6]; clinical isolate 22): 32; MICFlc ([6]; clinical isolate 23): 32; MICFlc ([6]; clinical isolate 25): 32; MICFlc ([6]; clinical isolate 26): 32; MICFlc ([6]; clinical isolate 30): 64; MICFlc ([6]; clinical isolate 33): 64; MICFlc ([6]; clinical isolate 36): 64; MICFlc ([6]; clinical isolate 41): 128; MICFlc ([6]; clinical isolate 45): 128

Question: Which MIC [7] does the source give for `CN[C@H]1CC[C@@H](c2ccc(Cl)c(Cl)c2)c2ccccc21` [sertraline] here?
Answer: ≥ 0.5 µg/mL
